Data from patent US7648993B2, “Methods of treating disorders with Group I mGluR antagonists” (Brown University, priority 2001, dated 2010).

Experiments:
Assay type in all cases: cell-based, rat
[1] = tested on: cultured hippocampal neurons; experiment: Acid strip immunocytochemistry for internalized GluR1 (AMPARs)
[2] = tested on: cultured hippocampal neurons; experiment: Immunocytochemical localization of surface synaptic receptors (GluR2, GluR1, NR1, GABAAβ1); details: for GluR1-positive synapses: cycloheximide 60 μM applied 15 min before DHPG where named
Source text: We next determined if the DHPG-induced increase in internalized AMPARs is accompanied by a net decrease in surface-expressed receptor clusters at synapses. At various intervals after DHPG washout, cells were fixed and surface GluR2 or GluR1 was labeled with N-terminal antibodies without permeabilization. The cultures were then permeabilized, and synapses were labeled using an antibody against the presynaptic marker synapsin I or synaptophysin coupled to the appropriate secondary antibody. Under control conditions, most synapses were immunoreactive for AMPAR clusters (GluR2, 80.6±9.0%; n=10 cells, 200 synapses, FIGS. 5A-D; GluR1, 72.5±4.7%; n=15 cells, 225 synapses; FIGS. 5E and F).
Following experimental treatment, low-density cultures were fixed in 4% paraformaldehyde with 4% sucrose for 5 min. Cultures were rinsed in PBS and then blocked in PBS with 20% fetal bovine serum for 1 h. Cultures were stained with N-terminal receptor antibodies overnight at 4° C. (GluR2, 1:100, Chemicon, Ternecula, California; GluR1, 1:100, gift of R. Huganir; NR1, 1:500, Chemicon MAB363; GABAAβ1, 1:100 Santa Cruz Biologicals, Santa Cruz, Calif.). Cultures were then rinsed in blocking buffer containing 0.1% Triton-X for 20 min and exposed to antibodies directed against presynaptic proteins (synapsin 1, 1:1000, Chemicon; synaptophysin, 1:100, Boehringer Manheim, Irvine, Calif.) for 1 h at room temperature. Cultures were then rinsed and exposed to the appropriate fluorescent secondary antibodies (Jackson Immunoresearch, West Grove, Pa.).
Microscopy was performed with a Nikon E800 microscope using a 60×1.4 NA objective (Melville, N.Y.). Fluorescence images were collected with a Sensys cooled CCD camera and analyzed using IP-Labs software. Additional images were collected with a Olympus Flowview confocal microscope with a 60×1.2 NA objective. All analyses were performed blind to the stimulation history of the culture. Microscopic fields had 1-3 neurons displaying smooth soma and generally healthy morphology with multiple distinct processes. Immunofluorescence was analyzed along the proximal 50 μm of 3 or more dendrites per neuron. Immunoreactive puncta were defined as discrete points along the dendrite with fluorescence intensity twice the background staining of the neuron. Five cells were analyzed per culture and 3-6 cultures were analyzed per condition. Separate controls were performed with each experiment and a Student's t-test was used to determine statistical significance. Data are expressed as puncta per 10 μm of dendrite unless stated otherwise.

[3] = tested on: high-density cultured hippocampal neurons; experiment: Biotinylation and quantitative western blot of surface expressed receptors; details: DHPG 50 μM, 5 min
Experimental: To confirm the effect of mGluR activation on surface AMPARs using an alternative approach, we treated high-density cultures with DHPG (50 μM, 5 min) or control medium and surface receptors were labeled with biotin 60 minutes later. Biotinylated receptors were precipitated and the ratio of surface to total GluR1 was determined by quantitative western blotting. This biochemical analysis confirmed that surface AMPARs are reduced by DHPG treatment to only 56.8±4.0% of the value in control cultures (n=4 in each treatment group; p<0.01; FIG. 6).
Biotinylation experiments were performed as previously described^35. Briefly, 2-week-old high-density cultured hippocampal neurons were treated with either control medium or 50 μM DHPG for 5 min, and incubated for 1 h at 37° C. to allow endocytosis to occur. The sister cultures were placed on ice to stop endocytosis and washed two times with ice-cold artificial cerebrospinal fluid (ACSF) containing 124 mM NaCl, 5 mM KCl, 1.25 mM NaH2PO4, 26 mM NaHCO3, 0.8 mM MgCl2, 1.8 mM CaCl2, 10 mM dextrose, and saturated with 95% O2, 5% CO2. Cultures were then incubated with ACSF containing 1 mg/ml Sulfo-NHS-LC-Biotin (Pierce Chemical Company, Rockford, Ill.) for 30 min on ice. Cultures were rinsed in TBS to quench the biotin reaction. […] Quantitative western blots were performed on both total and biotinylated (surface) proteins using anti-GluR1 C-terminal (1:1000, Upstate Biotechnology, Lake Placid, N.Y.) and anti-NR1 N-terminal antibodies (1:1000, Chemicon). […] Digital images, produced by densitometric scans of autoradiographs on a ScanJet IIcx (Hewlett Packard, Palo Alto, Calif.) with DeskScan II software (Hewlett Packard), were quantified using NIH Image 1.60 software. The surface/total ratio was calculated for each culture, and treatment groups were compared using a paired t-test. […] For display purposes, the data are expressed as the ratio of DHPG to control values.

[4] = tested on: cultured hippocampal cells; experiment: AMPAR-mediated mEPSC recordings; details: for mEPSC inter-event interval, % of baseline: 5 min; for mEPSC amplitude, % baseline: not statistically significant

With `NC(C(=O)O)c1cc(O)cc(O)c1` (racemic) [DHPG, (RS)-3,5-dihydroxyphenylglycine] the “internalized GluR1 puncta” value ([1]; DHPG 50 μM, 5 min, 15 minutes after treatment onset) was 1.44±0.17 puncta per 10 μm of dendrite, the “internalized GluR1 puncta” value ([1]; DHPG 50 μM, 5 min, 1 hour) was 1.14±0.15 puncta per 10 μm of dendrite and the “internalized GluR1 puncta, APV experiment” value ([1]; DHPG 50 μM, 5 min, APV 50 μM) was 1.49±0.22 puncta per 10 μm of dendrite. For the same molecule, the “internalized GluR1 puncta, LY344545 experiment” value ([1]; DHPG 50 μM, 5 min, LY344545 100 μM) was 1.39±0.34 puncta per 10 μm of dendrite, the “internalized GluR1 puncta, cycloheximide experiment” value ([1]; measured at 60 minutes, chx 60 μM applied 15 min before DHPG) was 1.5±0.27 puncta per 10 μm of dendrite and the GluR1-positive synapses ([2]; 15 min after DHPG) was 29.3±5.4%. The NR1-positive synapses ([2]; 15 minutes after DHPG treatment) was 28±6%, the “change in synapsin puncta density (in words)” value ([2]; 1 h after DHPG) was “no change” and the “synapsin-labeled puncta with GABAAβ1 clusters” value ([2]; 60 min after DHPG treatment) was 10.9±2%. The GluR1-positive synapses ([2]; 60 min after DHPG) was 20.0±12.0%, the “synapses with surface staining for GluR2” value ([2]; 1 hour after DHPG treatment) was 40.8±11% and the NR1-positive synapses ([2]; 60 minutes after DHPG treatment, with cycloheximide where named) was 21±3%. The “surface NR1 (surface/total), % of the value in control cultures” value ([3]; 60 minutes later, cycloheximide 60 μM with DHPG where named) was 32.3±8.2%, the “surface GluR1 (surface/total), % of the value in control cultures” value ([3]; biotin labeling 60 minutes later) was 56.8±4.0% and the “mEPSC inter-event interval, % of baseline” value ([4]; 15 min after DHPG 50 μM) was 315%. For the same molecule, the “mEPSC amplitude, % baseline” value ([4]; 15 minutes following DHPG) was 94.2%, the “mEPSC inter-event interval, % of baseline” value ([4]; 60 minutes after DHPG 50 μM) was 319% and the “mEPSC amplitude, % baseline” value ([4]; 60 minutes following DHPG) was 92.2%.
